The subject of test [1] is Human prostate cancer cells LNCaP. Kind of test: Androgen-dependent inhibitory activity on proliferation of prostate cancer cells. As to conditions: read-out: GI50 value. Format: cell-based. Here is the method: Human prostate cancer cells LNCaP (Non-Patent Literature 5) having […] androgen receptor gene were seeded in a clear bottom 96 well microplate (BD) at 4.0×10^3/well with phenol red free RPMI1640 containing 5% DCC-FBS (hereinbelow, the medium is referred to as an evaluation medium), and then cultured overnight. The culture was added with the evaluation medium containing DHT (final concentration of DHT: 10 nmol/L) or the evaluation medium containing the compound of Examples or the compound of Comparative Examples (final concentration of the compound of Examples or the compound of Comparative Examples: 10, 30, 100, 300, 1000, 3000, 10000, or 30000 nmol/L), followed by culture for 72 hours. Then, the number of viable cells was counted. The number of viable cells was measured by using Cell Counting Kit-8 (DOJINDO LABORATORIES).

Test [2] has as its system LNCaP-Xeno-IL-6 cells. Put plainly: Anti-tumor activity in in vivo model of castration resistant prostate cancer. The settings on record: castrated male nude mice, oral, every day for 2 weeks. Here is the method:
From the AR positive human prostate cancer cells LNCaP, castration resistant prostate cancer cells, LNCaP-Xeno-IL-6 cells, were established based on the scientific paper (Clin Cancer Res, 2001 7:2941-8) (in the paper, the cells have been reported as LNCaP-IL-6+ cells) and used for the in vivo test. The LNCaP-Xeno-IL-6 cells were implanted subcutaneously in male nude mice, and the castration treatment was performed when the tumor volume reached about 200 mm^3. After the castration, the vehicle only (0.5% HPMC) or the compound of Examples suspended in the vehicle was orally administered to the mice every day for 2 weeks. The compound of Examples was administered such that there was no difference in an exposure amount between the compounds. After the administration for 2 weeks, the tumor volume of each mouse was recorded and the average tumor volume of the group administered with the evaluation compound relative to the average tumor volume of the group administered only with the vehicle, that is, T/C (%), was calculated based on the following formula. T/C (%)=(Average tumor volume of evaluation compound group)/(Average tumor volume of vehicle administration group)

Test [3] deals with human androgen receptor (Homo sapiens (Human), UniProt P10275). Put plainly: Antagonist activity for AR (pMMTV-luc reporter transcription activity in transfected COS-7 cells, DHT 1 nmol/L). Format: cell-based. As to conditions: 50% transcription activity inhibition concentration; COS-7 cells with pMMTV-luc and pEX-hAR, DHT 1 nmol/L, 24 hours. The method, boiled down: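 COS-7 cells co-transfected with pMMTV-luc reporter and CMV-driven human AR expression vector, cultured overnight in phenol red-free RPMI1640 with 10% charcoal-treated FBS. Antagonism measured against 1 nmol/L DHT by luciferase transcription activity.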
Chain of human androgen receptor (P10275 whole entry): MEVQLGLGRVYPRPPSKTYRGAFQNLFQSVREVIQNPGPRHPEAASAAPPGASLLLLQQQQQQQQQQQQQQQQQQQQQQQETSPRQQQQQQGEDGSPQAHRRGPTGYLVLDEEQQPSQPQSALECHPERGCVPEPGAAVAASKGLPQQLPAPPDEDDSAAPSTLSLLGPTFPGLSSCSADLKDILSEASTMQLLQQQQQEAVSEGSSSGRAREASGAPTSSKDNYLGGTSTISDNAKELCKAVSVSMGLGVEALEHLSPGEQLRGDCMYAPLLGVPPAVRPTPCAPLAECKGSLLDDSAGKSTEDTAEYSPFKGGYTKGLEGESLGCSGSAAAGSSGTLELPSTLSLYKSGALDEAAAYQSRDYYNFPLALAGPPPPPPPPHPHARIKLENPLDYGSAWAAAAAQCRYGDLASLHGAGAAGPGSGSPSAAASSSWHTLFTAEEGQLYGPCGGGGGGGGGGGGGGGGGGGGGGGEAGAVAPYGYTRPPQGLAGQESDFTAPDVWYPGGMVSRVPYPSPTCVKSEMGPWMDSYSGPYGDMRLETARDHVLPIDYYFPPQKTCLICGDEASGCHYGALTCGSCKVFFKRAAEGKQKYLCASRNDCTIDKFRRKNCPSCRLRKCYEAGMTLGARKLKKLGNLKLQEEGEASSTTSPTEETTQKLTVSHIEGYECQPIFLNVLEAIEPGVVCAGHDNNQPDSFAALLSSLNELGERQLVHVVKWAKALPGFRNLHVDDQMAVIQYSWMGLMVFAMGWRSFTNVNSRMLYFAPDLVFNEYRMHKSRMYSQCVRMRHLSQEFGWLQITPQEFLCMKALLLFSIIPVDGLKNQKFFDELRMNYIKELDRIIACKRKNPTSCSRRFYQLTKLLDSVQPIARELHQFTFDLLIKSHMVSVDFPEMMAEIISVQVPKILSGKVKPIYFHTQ

The subject of test [4] is AR positive human prostate cancer cells VCaP. Put plainly: Agonist activity for AR (cell proliferation rate of VCaP cells). Format: cell-based. As to conditions: 72 hours, 2 to 10000 nmol/L, more than 10% at any concentration = agonist activity for AR. The method, boiled down:
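VCaP cells seeded at 1.5×10^4/well in phenol-red-free RPMI1640 with 5% DCC-FBS, then exposed 72 h to compound at 2–10000 nmol/L (9 concentrations). Viable cells counted by CellTiter-Glo; proliferation rate (%) relative to medium-only control, agonist activity called when >10% at any concentration.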

Test [5] has as its target androgen receptor (Homo sapiens (Human), UniProt P10275, T878A). Kind of test: Activity of reducing expression level of androgen receptor (Western blotting of LNCaP cell lysate). The settings on record: 48 hours. Format: cell-based. The method, boiled down:
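LNCaP prostate cancer cells (AR T878A) in phenol red-free RPMI1640 with 5% FBS treated with compound at final 10000 nmol/L for 48 h. Cell lysates analysed by Western blot with anti-AR antibody; band quantified by chemiluminescence.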

[6] abbreviates: 50% proliferation inhibition concentration, DHT 10 nmol/L, 72 hours.

This is an account of results in patent US10300067B2, “Tetrahydropyridopyrimidine compound or salt thereof” (TAIHO PHARMACEUTICAL CO., LTD., priority 2014, dated 2019).

Where two headings read alike, the source gives them in different places.

Chain of androgen receptor (P10275 whole entry T878A): as the sequence (P10275 whole entry) above, with T878A counted along it

For `CC(C)(O)c1ccc(Nc2ncnc3c2CCN(c2ccc(C#N)c(Cl)c2)C3)nn1` [Example 6, 2-chloro-4-(4-((6-(2-hydroxypropan-2-yl)pyridazin-3-yl)amino)-5,6-dihydropyrido[3,4-d]pyrimidin-7 (8H)-yl)benzonitrile], the 50% growth inhibitory concentration (GI50) in test [1] (setting [6]) is 400 nM. The “T/C (%)” value in test [2] (daily dose 100 mg/kg/day) is reported as 29%. This molecule registered an IC50 in test [3] of 70 nM. For the same molecule, in test [4], the “Cell proliferation rate (%)” value is −0.7%. In addition, the “10 μM AR expression reducing activity” value in test [5] is listed as “reduced (When the AR expression reducing activity is 50% or more, it is described as “reduced”)”.
Regarding `CC(C)(O)c1ccc(Nc2ncnc3c2CCN(c2ccc(C#N)c(C(F)(F)F)c2)C3)nc1` [Example 7, 4-(4-((5-(2-hydroxypropan-2-yl)pyridin-2-yl)amino)-5,6-dihydropyrido[3,4-d]pyrimidin-7(8H)-yl)-2-(trifluoromethyl)benzonitrile], the GI50 in test [1] (setting [6]) worked out at 500 nM. Also, in test [2] (daily dose 30 mg/kg/day), the “T/C (%)” value amounted to 49%. In addition, the 50% inhibitory concentration (IC50) in test [3] is 160 nM. Moreover, the “Cell proliferation rate (%)” value in test [4] is on record as 4.9%. Besides, the “10 μM AR expression reducing activity” value in test [5] is listed as “reduced (When the AR expression reducing activity is 50% or more, it is described as “reduced”)”.
As for `CC(C)(O)c1ccc(Nc2ncnc3c2CCN(c2ccc(C#N)c(Cl)c2)C3)nc1` [Example 9, 2-chloro-4-(4-((5-(2-hydroxypropan-2-yl)pyridin-2-yl)amino)-5,6-dihydropyrido[3,4-d]pyrimidin-7 (8H)-yl)benzonitrile], in test [1] (setting [6]), the 50% growth inhibitory concentration (GI50) was found to be 500 nM. Moreover, the “T/C (%)” value in test [2] (daily dose 15 mg/kg/day) came to 40%. Also, in test [3], the IC50 came to 250 nM. The “Cell proliferation rate (%)” value in test [4] is −0.7%. For the same molecule, the “10 μM AR expression reducing activity” value in test [5] is recorded as “reduced (When the AR expression reducing activity is 50% or more, it is described as “reduced”)”.
`N#Cc1ccc(N2CCc3c(ncnc3Nc3ccc(C(=O)NCC(F)(F)F)cn3)C2)cc1C(F)(F)F` [Example 11, 6-((7-(4-cyano-3-(trifluoromethyl)phenyl)-5,6,7,8,-tetrahydropyrido[3,4-d]pyrimidin-4-yl)amino)-N-(2,2,2-trifluoroethyl)nicotinamide]: the 50% growth inhibitory concentration (GI50) in test [1] (setting [6]) was 380 nM. For the same molecule, the “T/C (%)” value in test [2] (daily dose 200 mg/kg/day) came out at 47%. Also, in test [3], the IC50 is 30 nM. Also, the “Cell proliferation rate (%)” value in test [4] is on record as 2.9%. Moreover, the “10 μM AR expression reducing activity” value in test [5] is reported as “reduced (When the AR expression reducing activity is 50% or more, it is described as “reduced”)”.
Regarding `CC(C)(O)C1CCN(C(=O)c2cnc(Nc3ncnc4c3CCN(c3ccc(C#N)c(C(F)(F)F)c3)C4)o2)CC1` [Example 42, 4-(4-((5-(4-(2-hydroxypropan-2-yl)piperidin-1-carbonyl)oxazol-2-yl)amino)-5,6-dihydropyrido[3,4-d]pyrimidin-7(8H)-yl)-2-(trifluoromethyl)benzonitrile], the concentration for 50% growth inhibition (GI50) in test [1] (72 h) came out at 1100 nM. In test [3], the half-inhibitory concentration (IC50) was 340 nM. Also, the “Cell proliferation rate (%)” value in test [4] is reported as −17.2%. Moreover, the “10 μM AR expression reducing activity” value in test [5] was “reduced (When the AR expression reducing activity is 50% or more, it is described as “reduced”)”.
